The values below are quoted from earlier work in patent US20170341994A1, “PLANT GROWTH REGULATOR AND A METHOD OF USING THE SAME” (GLUCAN BIOLOGICAL TECHNOLOGY CO., LTD, priority 2016, published 2017).

The data set has as its system tumor. As to conditions: some studies.

For the substance β-glucan, the “inhibition of tumor growth” value is “more than 95%”.
